Assay [1] has as its system KRas-mediated phosphorylation of ERK in AsPC-1 cells. The assay is described as follows: Inhibition of KRas-mediated phosphorylation of ERK (Cisbio HTRF pERK), AsPC-1 cells. Type of assay: cell-based. As to conditions: Homo sapiens; for IC50: ASPC1, AsPC-1 cells, HTRF pERK. Summed up: (§1)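 Min control wells contained 0.2 uM Trametinib, while test compounds ran as 10 doses (3-fold, top 10 uM; 0.8% DMSO final) on cells for 3 hrs. After 40 mins lysis at 4° C, lysates were probed with HTRF antibodies for 2 hrs at room temperature.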
In general terms: Time-resolved FRET reads energy transfer from a long-lived donor to a nearby acceptor.

Assay [2] addresses T1, KRas^G12A (Homo sapiens, UniProt P01116, G12A).
T1 construct: Biotinylated KRas (corresponding to amino acids 1-169, produced at Accelegan Inc.); biotin (biotinylated); purchased Accelegan Inc
The assay can be described thus: KRas binding assay (TR-FRET tracer displacement), KRas G12A. As to conditions: for inhibition at 0.01 µM: single point, 10 nM compound, TR-FRET; for IC50: TR-FRET tracer displacement, KRas G12A.

Assay [3] has as its system KRas-mediated phosphorylation of ERK in A549 cells. The assay can be described thus: Inhibition of KRas-mediated phosphorylation of ERK (Cisbio HTRF pERK), A549 cells. Format: cell-based. As to conditions: Homo sapiens; for inhibition at 0.1 µM: A549, 3 h, single point, 100 nM compound, 3 hrs. In outline:
(§2)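 Using 6,000 cells per well, compounds are applied for 3 hrs and cells then lysed at 4° C with shaking for 40 mins. Phospho-ERK is measured by HTRF after 2 hrs of lysate incubation with the d2/Cryptate antibody mixture.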

Assay [4] addresses T2, KRas^WT (Homo sapiens, UniProt P01116).
T2 construct: Biotinylated KRas (corresponding to amino acids 1-169, produced at Accelegan Inc.); biotin (biotinylated); purchased Accelegan Inc
The assay is described as follows: KRas binding assay (TR-FRET tracer displacement), KRas WT. As to conditions: for inhibition at 0.01 µM: single point, 10 nM compound, TR-FRET; for IC50: TR-FRET tracer displacement, KRas WT.

Assay [5] concerns the target T3, KRas^Q61H (Homo sapiens, UniProt P01116, Q61H).
T3 construct: Biotinylated KRas (corresponding to amino acids 1-169, produced at Accelegan Inc.); biotin (biotinylated); purchased Accelegan Inc
The assay can be described thus: KRas binding assay (TR-FRET tracer displacement), KRas Q61H. The conditions noted are these: for inhibition at 0.01 µM: single point, 10 nM compound, TR-FRET; for IC50: TR-FRET tracer displacement, KRas Q61H.

Assay [6] has as its system KRas-mediated phosphorylation of ERK in HCT116 cells. The assay is described as follows: Inhibition of KRas-mediated phosphorylation of ERK (Cisbio HTRF pERK), HCT116 cells. As to conditions: Homo sapiens; for inhibition at 0.1 µM: HCT-116, 3 h, single point, 100 nM compound, 3 hrs. Format: cell-based. In outline: as §2
In assay [7] the test system is KRas-mediated phosphorylation of ERK in H358 cells. The assay is described as follows: Inhibition of KRas-mediated phosphorylation of ERK (Cisbio HTRF pERK), H358 cells. Type of assay: cell-based. As to conditions: Homo sapiens; for inhibition at 0.1 µM: NCI-H358, 3 h, single point, 100 nM compound, 3 hrs. Summed up: as §1
The subject of assay [8] is KRas-mediated phosphorylation of ERK in H460 cells. The assay is described as follows: Inhibition of KRas-mediated phosphorylation of ERK (Cisbio HTRF pERK), H460 cells. Type of assay: cell-based. As to conditions: Homo sapiens; for inhibition at 0.1 µM: NCI-H460, 3 h, single point, 100 nM compound, 3 hrs. Summed up: as §1
In assay [9] the target is T4, KRas^G12V (Homo sapiens, UniProt P01116, G12V).
T4 construct: Biotinylated KRas (corresponding to amino acids 1-169, produced at Accelegan Inc.); biotin (biotinylated); purchased Accelegan Inc
T4 sequence (P01116 1-169 isoform P01116-2 G12V): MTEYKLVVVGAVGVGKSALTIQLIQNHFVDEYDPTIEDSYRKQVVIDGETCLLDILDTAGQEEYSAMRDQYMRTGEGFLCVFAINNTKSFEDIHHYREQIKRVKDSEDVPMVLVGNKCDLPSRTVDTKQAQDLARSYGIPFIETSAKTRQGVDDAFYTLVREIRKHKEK
The assay can be described thus: KRas binding assay (TR-FRET tracer displacement), KRas G12V.

Assay [10] addresses T5, KRas^G12R (Homo sapiens, UniProt P01116, G12R).
T5 construct: Biotinylated KRas (corresponding to amino acids 1-169, produced at Accelegan Inc.); biotin (biotinylated); purchased Accelegan Inc
The assay is described as follows: KRas binding assay (TR-FRET tracer displacement), KRas G12R.

Assay [11] deals with T6, KRas^G13D (Homo sapiens, UniProt P01116, G13D).
T6 construct: Biotinylated KRas (corresponding to amino acids 1-169, produced at Accelegan Inc.); biotin (biotinylated); purchased Accelegan Inc
T6 sequence (P01116 1-169 isoform P01116-2 G13D): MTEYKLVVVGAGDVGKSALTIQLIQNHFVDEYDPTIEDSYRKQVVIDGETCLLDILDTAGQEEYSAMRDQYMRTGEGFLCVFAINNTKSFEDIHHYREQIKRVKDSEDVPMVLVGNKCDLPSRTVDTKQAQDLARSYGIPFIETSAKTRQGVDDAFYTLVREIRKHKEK
The assay is described as follows: KRas binding assay (TR-FRET tracer displacement), KRas G13D. As to conditions: for inhibition at 0.01 µM: single point, 10 nM compound, TR-FRET; for IC50: TR-FRET tracer displacement, KRas G13D.

For assay [12], the target named is T7, KRas^G12D (Homo sapiens, UniProt P01116, G12D).
T7 construct: Biotinylated KRas (corresponding to amino acids 1-169, produced at Accelegan Inc.); biotin (biotinylated); purchased Accelegan Inc
T7 sequence (P01116 1-169 isoform P01116-2 G12D): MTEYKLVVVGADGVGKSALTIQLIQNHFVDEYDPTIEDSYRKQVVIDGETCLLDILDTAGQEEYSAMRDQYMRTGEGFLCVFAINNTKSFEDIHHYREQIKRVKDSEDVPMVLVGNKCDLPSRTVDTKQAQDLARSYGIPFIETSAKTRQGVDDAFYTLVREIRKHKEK
The assay can be described thus: KRas binding assay (TR-FRET tracer displacement), KRas G12D.

The target of assay [13] is T8, KRas^G12C (Homo sapiens, UniProt P01116, G12C).
T8 construct: Biotinylated KRas (corresponding to amino acids 1-169, produced at Accelegan Inc.); biotin (biotinylated); purchased Accelegan Inc
T8 sequence (P01116 1-169 isoform P01116-2 G12C): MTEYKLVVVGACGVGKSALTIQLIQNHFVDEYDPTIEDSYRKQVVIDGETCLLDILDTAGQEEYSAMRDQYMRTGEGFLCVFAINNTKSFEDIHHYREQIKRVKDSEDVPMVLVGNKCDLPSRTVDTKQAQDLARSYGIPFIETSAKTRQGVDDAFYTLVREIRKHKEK
The assay can be described thus: KRas binding assay (TR-FRET tracer displacement), KRas G12C. The conditions noted are these: for inhibition at 0.01 µM: single point, 10 nM compound, TR-FRET; for IC50: TR-FRET tracer displacement, KRas G12C.

Assay [14] has as its system KRas-mediated phosphorylation of ERK in H727 cells. The assay can be described thus: Inhibition of KRas-mediated phosphorylation of ERK (Cisbio HTRF pERK), H727 cells. Type of assay: cell-based. As to conditions: Homo sapiens; for IC50: NCI-H727, H727 cells, HTRF pERK. Summed up:
as §1

Assay [15] has as its target T9, KRas^G12S (Homo sapiens, UniProt P01116, G12S).
T9 construct: Biotinylated KRas (corresponding to amino acids 1-169, produced at Accelegan Inc.); biotin (biotinylated); purchased Accelegan Inc
The assay is described as follows: KRas binding assay (TR-FRET tracer displacement), KRas G12S. As to conditions: for inhibition at 0.01 µM: single point, 10 nM compound, TR-FRET; for IC50: TR-FRET tracer displacement, KRas G12S.

T3 sequence (P01116 1-169 isoform P01116-2 Q61H): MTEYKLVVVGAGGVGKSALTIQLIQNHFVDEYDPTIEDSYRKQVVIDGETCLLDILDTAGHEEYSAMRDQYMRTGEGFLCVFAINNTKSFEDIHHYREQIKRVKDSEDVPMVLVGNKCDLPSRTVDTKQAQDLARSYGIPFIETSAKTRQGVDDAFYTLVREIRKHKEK
T1 sequence (P01116 1-169 isoform P01116-2 G12A): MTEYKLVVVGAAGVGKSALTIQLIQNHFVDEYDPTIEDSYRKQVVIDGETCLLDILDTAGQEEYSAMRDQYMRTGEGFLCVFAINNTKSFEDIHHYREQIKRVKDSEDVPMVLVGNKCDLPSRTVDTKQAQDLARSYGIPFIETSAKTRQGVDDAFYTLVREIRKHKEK
T2 sequence (P01116 1-169 isoform P01116-2): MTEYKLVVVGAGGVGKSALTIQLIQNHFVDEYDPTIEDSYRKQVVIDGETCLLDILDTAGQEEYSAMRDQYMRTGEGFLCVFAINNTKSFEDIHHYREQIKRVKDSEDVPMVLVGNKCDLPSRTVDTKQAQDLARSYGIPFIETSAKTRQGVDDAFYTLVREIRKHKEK
T5 sequence (P01116 1-169 isoform P01116-2 G12R): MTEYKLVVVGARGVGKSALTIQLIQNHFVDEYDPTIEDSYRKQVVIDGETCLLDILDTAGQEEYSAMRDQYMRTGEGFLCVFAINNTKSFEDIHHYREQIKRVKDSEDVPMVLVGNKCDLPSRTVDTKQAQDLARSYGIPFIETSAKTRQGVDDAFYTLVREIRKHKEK
T9 sequence (P01116 1-169 isoform P01116-2 G12S): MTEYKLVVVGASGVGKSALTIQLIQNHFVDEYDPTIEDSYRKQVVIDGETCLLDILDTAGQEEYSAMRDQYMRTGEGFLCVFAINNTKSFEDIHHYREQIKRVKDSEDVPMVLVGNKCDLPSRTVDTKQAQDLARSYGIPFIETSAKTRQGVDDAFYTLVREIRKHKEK

As for `CN(C)C(=O)OC[C@@H]1CC[C@@]2(COc3nc(N4CCC[C@@](C)(O)C4)c4cnc(-c5cc(O)cc6ccc(F)c(F)c56)c(F)c4n3)CCCN12` [Example 548, ((3S,7aR)-7a-(((7-(7,8-difluoro-3-hydroxynaphthalen-1-yl)-8-fluoro-4-((R)-3-hydroxy-3-methylpiperidin-1-yl)pyrido[4,3-d]pyrimidin-2-yl)oxy)methyl)hexahydro-1H-pyrrolizin-3-yl)methyl dimethylcarbamate], the IC50 was found to be 55 nM in assay [1]; 3 nM in [9]; 5 nM in [10]; 2 nM in assay [12]; 88 nM in [14]. Besides, the inhibition at 0.01 µM was determined as 79% in assay [2]; 79% in assay [4]; 79% in [5]; 86% in assay [11]; 84% in assay [13]; 79% in [15]. Also, the inhibition at 0.1 µM in [3] was determined as 38%; in assay [6], 29%; in assay [7], 59%; in [8], 38%.

As for `CCc1c(F)ccc2cc(O)cc(-c3ncc4c(N5CCC[C@]6(CCO6)C5)nc(OCC5(CN(C)C)CC5)nc4c3F)c12` [Example 699, (S)-4-(2-((1-((dimethylamino)methyl)cyclopropyl)methoxy)-8-fluoro-4-(1-oxa-6-azaspiro[3.5]nonan-6-yl)pyrido[4,3-d]pyrimidin-7-yl)-5-ethyl-6-fluoronaphthalen-2-ol], the IC50 in [1] came out at 2 nM; in [3] (HTRF pERK), 2 nM; in assay [6] (HCT-116, HTRF pERK), 14 nM; in assay [7] (NCI-H358, HTRF pERK), 3 nM; in [8] (NCI-H460, HTRF pERK), 5 nM; in assay [14] it was 6 nM. Also, the inhibition at 0.01 µM in [2] was 87%; in assay [4], 91%; in assay [5], 96%; in assay [11], 96%; in [13], 96%; in assay [15], 93%. For the same compound, the inhibition at 0.1 µM in assay [3] was 80%; in assay [6], 82%; in assay [7] it was 101%; in [8], 95%.

Consider `Cc1ccc2c(-c3ncc4c(N5C[C@@H]6C[C@H](C5)[C@H](O)C6)nc(OC[C@@]56CCCN5C[C@H](F)C6)nc4c3F)cc(O)cc2c1` [Example 746, (1R,5R,6R)-3-(8-fluoro-2-(((2R,7aS)-2-fluorotetrahydro-1H-pyrrolizin-7a(5H)-yl)methoxy)-7-(3-hydroxy-6-methylnaphthalen-1-yl)pyrido[4,3-d]pyrimidin-4-yl)-3-azabicyclo[3.2.1]octan-6-ol], for which the 50% inhibitory concentration (IC50) turned out to be 2260 nM in assay [1]; 82 nM in [2]; 117 nM in assay [4]; 166 nM in [5]; 59 nM in assay [9]; 68 nM in assay [10]. For the same compound, the IC50 in assay [11] is 107 nM; in assay [12], 226 nM; in assay [13] it was 106 nM; in assay [14], 1340 nM; in assay [15] it was 64 nM. The inhibition at 0.1 µM was -19% in assay [3], 10% in assay [6], -17% in assay [7] and 2% in assay [8].

For `Cc1cccc2c(-c3ncc4c(N5C[C@@H]6C[C@H](C5)[C@H](O)C6)nc(OC[C@@]56CCCN5C[C@H](F)C6)nc4c3F)cc(O)cc12` [Example 747, (1R,5R,6R)-3-(8-fluoro-2-(((2R,7aS)-2-fluorohexahydro-1H-pyrrolizin-7a-yl)methoxy)-7-(3-hydroxy-5-methylnaphthalen-1-yl)pyrido[4,3-d]pyrimidin-4-yl)-3-azabicyclo[3.2.1]octan-6-ol], the IC50 in assay [1] amounted to 3850 nM; in assay [2], 36 nM; in [4] it was 107 nM; in assay [5], 180 nM; in [9], 67 nM; in assay [10], 76 nM. In addition, the half-inhibitory concentration (IC50) in assay [11] came out at 94 nM; in assay [12], 272 nM; in assay [13] it was 107 nM; in [14], 1260 nM; in assay [15], 61 nM. Moreover, the inhibition at 0.1 µM in assay [3] is 4%; in assay [6], 5%; in [7] it was -6%; in [8], -6%.

With `Oc1cc(-c2ncc3c(N4C[C@@H]5C[C@H](C4)[C@H](O)C5)nc(OC[C@@]45CCCN4C[C@H](F)C5)nc3c2F)c2cccc(F)c2c1` [Example 748, (1R,5R,6R)-3-(8-fluoro-7-(5-fluoro-3-hydroxynaphthalen-1-yl)-2-(((2R,7aS)-2-fluorohexahydro-1H-pyrrolizin-7a-yl)methoxy)pyrido[4,3-d]pyrimidin-4-yl)-3-azabicyclo[3.2.1]octan-6-ol], the 50% inhibitory concentration (IC50) in assay [1] turned out to be 788 nM; in assay [2], 16 nM; in assay [4] it was 20 nM; in [5] it was 26 nM; in assay [9], 12 nM; in assay [10] it was 11 nM. For the same compound, the IC50 in assay [11] is 21 nM; in assay [12] it was 32 nM; in [13] it was 18 nM; in assay [14], 275 nM; in assay [15], 12 nM. Further, the inhibition at 0.1 µM was -7% in assay [3], 21% in assay [6], 5% in assay [7] and -6% in assay [8].

For the compound `Oc1cc(-c2ncc3c(N4C[C@@H]5C[C@H](C4)[C@H](O)C5)nc(OC[C@@]45CCCN4C[C@H](F)C5)nc3c2F)c2ccc(F)cc2c1` [Example 749, (1R,5R,6R)-3-(8-fluoro-7-(6-fluoro-3-hydroxynaphthalen-1-yl)-2-(((2R,7aS)-2-fluorohexahydro-1H-pyrrolizin-7a-yl)methoxy)pyrido[4,3-d]pyrimidin-4-yl)-3-azabicyclo[3.2.1]octan-6-ol], the IC50 in assay [1] turned out to be 1400 nM; in assay [2], 25 nM; in [4], 34 nM; in assay [5], 44 nM; in assay [9], 19 nM; in assay [10], 16 nM. Further, the IC50 in assay [11] was 37 nM; in [12] it was 54 nM; in assay [13], 29 nM; in assay [14] it was 246 nM; in assay [15] it was 19 nM. Besides, the inhibition at 0.1 µM in [3] is 15%; in assay [6], 20%; in assay [7], -5%; in assay [8] it was -3%.

`Oc1cc(-c2ncc3c(N4C[C@@H]5C[C@H](C4)[C@H](O)C5)nc(OC[C@@]45CCCN4C[C@H](F)C5)nc3c2F)c2ccccc2c1F` [Example 750, (1R,5R,6R)-3-(8-fluoro-7-(4-fluoro-3-hydroxynaphthalen-1-yl)-2-(((2R,7aS)-2-fluorotetrahydro-1H-pyrrolizin-7a(5H)-yl)methoxy)pyrido[4,3-d]pyrimidin-4-yl)-3-azabicyclo[3.2.1]octan-6-ol]: the inhibition at 0.1 µM is -1% in assay [1] (ASPC1, 3 h, single point, 100 nM compound, 3 hrs, AsPC-1 cells); -1% in assay [3]; 2% in assay [6]; 15% in assay [7]; 16% in assay [8]; 1% in assay [14] (NCI-H727, 3 h, single point, 100 nM compound, 3 hrs, H727 cells). Moreover, the half-maximal inhibitory concentration (IC50) in [1] is 1900 nM; in [2] it was 63 nM; in assay [4] it was 84 nM; in assay [5] it was 184 nM; in assay [9] it was 29 nM; in assay [10], 42 nM. The half-inhibitory concentration (IC50) is 74 nM in assay [11]; 98 nM in assay [12]; 74 nM in [13]; 1680 nM in [14]; 43 nM in assay [15].

The IC50 is the concentration needed to halve the response being measured. What is called inhibition is the change of the read-out against control, counted positive when it falls.

Values taken from patent publication US20260015350A1, “AZAQUINAZOLINE PAN-KRAS INHIBITORS” (Mirati Therapeutics, Inc., priority 2022, published 2026).
